The assay concerns the target T1, human GPR17 receptor (Homo sapiens, UniProt Q13304).
T1 construct: host or cells: HEK-293
The experiment in a line: Calcium mobilization functional assay (Fluo-8, FLIPR TETRA) in HEK-293 hGPR17 (Gα-q assay). In kind it is cell-based. The settings on record: antagonism of MDL29,951 (~EC80) induced Ca2+ signal; cell line (HEK-293 hGPR17 or HEK-293 Suchi5 hGPR17) not given. The gist of the method:
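Fluo-8-loaded HEK-293 hGPR17 cells (60 min dye loading, room temperature) were preincubated with compound for twenty minutes, then challenged with agonist MDL29,951 at ~EC80, 500 nM. Intracellular calcium release via Gα-q was recorded as FLIPR fluorescence for a further 2 minutes; compounds tested in duplicate.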
Background: Calcium assays in cells follow changes in intracellular calcium, usually with a dye or a luminescent sensor.
T1 sequence (Q13304 whole entry): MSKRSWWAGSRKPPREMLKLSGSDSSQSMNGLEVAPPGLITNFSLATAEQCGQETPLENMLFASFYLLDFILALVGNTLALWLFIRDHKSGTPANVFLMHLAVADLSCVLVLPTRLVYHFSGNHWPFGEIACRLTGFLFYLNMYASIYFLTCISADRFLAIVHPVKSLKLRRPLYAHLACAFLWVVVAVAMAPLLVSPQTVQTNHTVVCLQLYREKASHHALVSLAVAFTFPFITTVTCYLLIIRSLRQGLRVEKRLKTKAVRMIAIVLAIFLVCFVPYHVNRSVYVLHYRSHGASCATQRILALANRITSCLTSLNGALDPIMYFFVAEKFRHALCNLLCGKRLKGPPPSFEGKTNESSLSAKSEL
Broadly, the IC50 is the point on the concentration scale where inhibition reaches its midpoint. Consider `O=S(=O)(Nc1c(F)cc(C(F)(F)F)cc1F)c1c[nH]c(-c2ccccc2)c1` [Cpd 328, N-[2,6-difluoro-4-(trifluoromethyl)phenyl]-5-phenyl-1H-pyrrole-3-sulfonamide], for which the IC50 is 500 to 5000 nM. For `Cc1ccc(-c2cc(S(=O)(=O)Nc3ccc(C#N)cc3F)c[nH]2)c(C)c1` [Cpd 329, N-(4-cyano-2-fluoro-phenyl)-5-(2,4-dimethylphenyl)-1H-pyrrole-3-sulfonamide], the IC50 lay in the range of 500 to 5000 nM. As to `N#Cc1ccc(-c2cc(S(=O)(=O)Nc3cc(F)c(C(F)(F)F)cc3F)c[nH]2)cc1` [Cpd 330, 5-(4-cyanophenyl)-N-[2,5-difluoro-4-(trifluoromethyl)phenyl]-1H-pyrrole-3-sulfonamide], the IC50 lay in the range of 5000 to 50000 nM. For `Cc1ccc(C)c(-c2cc(S(=O)(=O)Nc3ccc(C#N)cc3F)c[nH]2)c1` [Cpd 331, N-(4-cyano-2-fluoro-phenyl)-5-(2,5-dimethylphenyl)-1H-pyrrole-3-sulfonamide], the IC50 was below 500 nM. Then `O=S(=O)(Nc1ccc(C(F)(F)F)c(F)c1F)c1c[nH]c(-c2ccccn2)c1` [Cpd 332, N-[2,3-difluoro-4-(trifluoromethyl)phenyl]-5-(2-pyridyl)-1H-pyrrole-3-sulfonamide], with 500 to 5000 nM; and `N#Cc1cc(F)c(NS(=O)(=O)c2c[nH]c(-c3ccccc3)c2)cc1Cl` [Cpd 333, N-(5-chloro-4-cyano-2-fluoro-phenyl)-5-phenyl-1H-pyrrole-3-sulfonamide], with below 500 nM. Turning to `O=S(=O)(Nc1ccc(C(F)(F)F)c(F)c1F)c1c[nH]c(-c2ccccc2)c1` [Cpd 334, N-[2,3-difluoro-4-(trifluoromethyl)phenyl]-5-phenyl-1H-pyrrole-3-sulfonamide], the IC50 lay in the range of 500 to 5000 nM. On to `O=S(=O)(Nc1ccc(C(F)(F)F)c(Cl)c1F)c1c[nH]c(-c2ccccn2)c1` [Cpd 335, N-[3-chloro-2-fluoro-4-(trifluoromethyl)phenyl]-5-(2-pyridyl)-1H-pyrrole-3-sulfonamide], for which the IC50 lay in the range of 5000 to 50000 nM. `Cc1cc(NS(=O)(=O)c2c[nH]c(-c3ccccn3)c2)c(F)cc1C(F)(F)F` [Cpd 336, N-[2-fluoro-5-methyl-4-(trifluoromethyl)phenyl]-5-(2-pyridyl)-1H-pyrrole-3-sulfonamide]: the IC50 is 500 to 5000 nM. `Cc1cccc(-c2cc(S(=O)(=O)Nc3cc(F)c(C(F)(F)F)cc3F)c[nH]2)c1` [Cpd 337, N-[2,5-difluoro-4-(trifluoromethyl)phenyl]-5-(m-tolyl)-1H-pyrrole-3-sulfonamide]: the IC50 was 500 to 5000 nM.

In the case of `Cc1cc(NS(=O)(=O)c2c[nH]c(-c3ccccc3)c2)c(F)cc1C(F)(F)F` [Cpd 338, N-[2-fluoro-5-methyl-4-(trifluoromethyl)phenyl]-5-phenyl-1H-pyrrole-3-sulfonamide], the IC50 is 500 to 5000 nM. Then `O=S(=O)(Nc1cc(F)c(C(F)(F)F)cc1F)c1c[nH]c(-c2nccs2)c1` [Cpd 339, N-[2,5-difluoro-4-(trifluoromethyl)phenyl]-5-thiazol-2-yl-1H-pyrrole-3-sulfonamide], with below 500 nM; and `N#Cc1ccc(NS(=O)(=O)c2c[nH]cc2Cc2cccc(OC3CC3)c2)c(F)c1` [Cpd 340, N-(4-cyano-2-fluoro-phenyl)-4-[[3-(cyclopropoxy)phenyl]methyl]-1H-pyrrole-3-sulfonamide], with 500 to 5000 nM. `CC(C)Oc1cccc(Cc2c[nH]cc2S(=O)(=O)Nc2ccc(C#N)cc2F)c1` [Cpd 341, N-(4-cyano-2-fluoro-phenyl)-4-[(3-isopropoxyphenyl)methyl]-1H-pyrrole-3-sulfonamide]: the IC50 fell in the range of 500 to 5000 nM.

For the molecule `N#Cc1ccc(NS(=O)(=O)c2c[nH]cc2Cc2cccc(OCC3CC3)c2)c(F)c1` [Cpd 342, N-(4-cyano-2-fluoro-phenyl)-4-[[3-(cyclopropylmethoxy)phenyl]methyl]-1H-pyrrole-3-sulfonamide], the IC50 lay in the range of 500 to 5000 nM.

For the molecule `N#Cc1ccc(NS(=O)(=O)c2c[nH]cc2Cc2cccs2)c(F)c1` [Cpd 343, N-(4-cyano-2-fluoro-phenyl)-4-(2-thienylmethyl)-1H-pyrrole-3-sulfonamide], the half-inhibitory concentration (IC50) was below 500 nM.

For the molecule `O=S(=O)(Nc1cc(F)c(C(F)(F)F)cc1F)c1c[nH]c(-c2cccc(C(F)(F)F)n2)c1` [Cpd 344, N-[2,5-difluoro-4-(trifluoromethyl)phenyl]-5-[6-(trifluoromethyl)-2-pyridyl]-1H-pyrrole-3-sulfonamide], the IC50 fell in the range of 500 to 5000 nM. Next, `O=S(=O)(Nc1cc(F)c(C(F)(F)F)cc1F)c1c[nH]c(-c2ccc(Br)cn2)c1` [Cpd 345, 5-(5-bromo-2-pyridyl)-N-[2,5-difluoro-4-(trifluoromethyl)phenyl]-1H-pyrrole-3-sulfonamide]: 500 to 5000 nM; `O=S(=O)(Nc1cc(F)c(C(F)(F)F)cc1F)c1c[nH]c(-c2ncccc2Br)c1` [Cpd 346, 5-(3-bromo-2-pyridyl)-N-[2,5-difluoro-4-(trifluoromethyl)phenyl]-1H-pyrrole-3-sulfonamide]: below 500 nM; `N#Cc1ccc(NS(=O)(=O)c2c[nH]c(-c3ccc(F)cn3)c2)c(F)c1` [Cpd 347, N-(4-cyano-2-fluoro-phenyl)-5-(5-fluoro-2-pyridyl)-1H-pyrrole-3-sulfonamide]: 500 to 5000 nM. As for `Cc1cccnc1-c1cc(S(=O)(=O)Nc2ccc(C#N)cc2F)c[nH]1` [Cpd 348, N-(4-cyano-2-fluoro-phenyl)-5-(3-methyl-2-pyridyl)-1H-pyrrole-3-sulfonamide], the half-maximal inhibitory concentration (IC50) is below 500 nM. On to `N#Cc1ccc(NS(=O)(=O)c2c[nH]c(-c3ncccc3Cl)c2)c(F)c1` [Cpd 349, 5-(3-chloro-2-pyridyl)-N-(4-cyano-2-fluoro-phenyl)-1H-pyrrole-3-sulfonamide], for which the IC50 was below 500 nM. For the molecule `N#Cc1ccc(NS(=O)(=O)c2c[nH]c(-c3ncccc3Br)c2)c(F)c1` [Cpd 350, 5-(3-bromo-2-pyridyl)-N-(4-cyano-2-fluoro-phenyl)-1H-pyrrole-3-sulfonamide], the IC50 is below 500 nM. Next, `O=S(=O)(Nc1cc(F)c(C(F)(F)F)cc1F)c1c[nH]c(-c2ccccc2Cl)c1` [Cpd 351, 5-(2-chlorophenyl)-N-[2,5-difluoro-4-(trifluoromethyl)phenyl]-1H-pyrrole-3-sulfonamide]: 500 to 5000 nM; `COc1cc(F)ccc1-c1cc(S(=O)(=O)Nc2ccc(C#N)cc2F)c[nH]1` [Cpd 352, N-(4-cyano-2-fluoro-phenyl)-5-(4-fluoro-2-methoxy-phenyl)-1H-pyrrole-3-sulfonamide]: 500 to 5000 nM; `N#Cc1cc(F)c(NS(=O)(=O)c2c[nH]c(-c3ccccn3)c2)cc1F` [Cpd 353, N-(4-cyano-2,5-difluoro-phenyl)-5-(2-pyridyl)-1H-pyrrole-3-sulfonamide]: below 500 nM. For the molecule `N#Cc1cc(F)c(NS(=O)(=O)c2c[nH]c(-c3ccccn3)c2)c(F)c1` [Cpd 354, N-(4-cyano-2,6-difluoro-phenyl)-5-(2-pyridyl)-1H-pyrrole-3-sulfonamide], the IC50 lay in the range of 500 to 5000 nM. Then `N#Cc1ccccc1-c1cc(S(=O)(=O)Nc2cc(F)c(C(F)(F)F)cc2F)c[nH]1` [Cpd 355, 5-(2-cyanophenyl)-N-[2,5-difluoro-4-(trifluoromethyl)phenyl]-1H-pyrrole-3-sulfonamide], with 500 to 5000 nM; and `O=S(=O)(Nc1cc(F)c(C(F)(F)F)cc1F)c1c[nH]c(-c2cccc(Cl)c2)c1` [Cpd 356, 5-(3-chlorophenyl)-N-[2,5-difluoro-4-(trifluoromethyl)phenyl]-1H-pyrrole-3-sulfonamide], with 500 to 5000 nM.

The values above are taken from patent US20240299385A1 (ReWind Therapeutics NV, priority 2021, published 2024).
